From patent publication US8058295B2, “Cystic fibrosis transmembrane conductance regulator protein inhibitors and uses thereof” (The Regents of the University of California, priority 2002, dated 2011)

Tested on: STa toxin-induced fluid secretion
Set-up: species or system rats
Conditions: rat, in vivo

O=C(O)c1ccc(/C=C2\SC(=S)N(c3cccc(C(F)(F)F)c3)C2=O)cc1 [CFTRinh-172, 3-[(3-trifluoromethyl)phenyl]-5-[(4-carboxyphenyl)methylene]-2-thioxo-4-thiazolidinone]
inhibition of intestinal fluid secretion: ~75%
